Source: the Biogen ADME set (Fang et al. 2023)
Converted amounts (≈) assume the structure as drawn.

Conditions: for aqueous solubility: pH 6.8

MDR1-MDCK efflux ratio | intrinsic clearance, human liver microsomes [mL/min/kg] | intrinsic clearance, rat liver microsomes [mL/min/kg] | aqueous solubility [µg/mL] | fraction unbound, human plasma | fraction unbound, rat plasma | Compound
0.841 | ≤ 4.74 | 44.8 | 52.8 (≈ 176 µM) |  |  | CCNC(=O)N1CCC(c2nc(-c3ccccc3)no2)CC1
7.24 | ≤ 4.74 | 32.1 | 55.7 (≈ 227 µM) |  |  | Cc1noc(C)c1CCC(=O)Nc1cccnc1
17.6 | 54 | 571 |  |  |  | Cc1cccc(NC(=O)CN(C)Cc2nc3ccccc3c(=O)[nH]2)c1C
0.314 | 20.7 | 76.3 | 4.11 (≈ 12.8 µM) |  |  | O=C(Nc1ccc(F)cc1)c1cc(C2CC2)nn1-c1ccccc1
7.8 | 101 | 232 |  | 0.00355 | 0.00473 | CCn1c(-c2nonc2N)nc2cnc(Oc3cccc(NC(=O)c4ccc(OCCN5CCOCC5)cc4)c3)cc21
 | 194 | 604 |  |  |  | O=C(Nc1ccc(C2CCCCC2)cc1)c1ccc(S(=O)(=O)NCc2cccnc2)cc1
0.856 | 133 | 2050 |  |  |  | CC1=C(Br)CN(CCc2nc3ccccc3c(=O)[nH]2)CC1
0.574 | ≤ 4.74 | 443 | 40.2 (≈ 163 µM) |  |  | CCCC(=O)N1CCC(c2cccc(C)n2)CC1
7.18 | 44.4 | 808 |  |  |  | CCCn1cc(NC(=O)Nc2ccc(N3CCSCC3)cc2)cn1
0.732 | ≤ 4.74 | 29.8 |  |  |  | c1cc(-c2noc(CN3CCOCC3)n2)ccn1
 | 26.7 | 113 |  |  |  | Cc1cc(CO)nc(N2CCCCC2)n1
 | 86.2 | 462 | 44.9 (≈ 160 µM) |  |  | c1ccc2[nH]c(SCc3cn4ccccc4n3)nc2c1
 | 5.9 | 98 | 52.8 (≈ 163 µM) |  |  | CS(=O)(=O)N1CCC(Nc2ccc3ccc(F)cc3n2)CC1
1.31 | 15.2 | 108 | 44 (≈ 120 µM) |  |  | O=C(NCCN1CCC(c2ccccc2)CC1)c1ccc2ncsc2c1
0.473 |  |  | 0.18 (≈ 0.529 µM) |  |  | O=C(Nc1ccc2c3c(cccc13)CC2)c1ccc(-n2cncn2)cc1
 | ≤ 4.74 | 104 | 41.5 (≈ 110 µM) |  |  | CN1C(=O)[C@@H](NC(=O)c2nnc(Cc3ccccc3)[nH]2)COc2ccccc21
1.22 | ≤ 4.74 | 116 | 5.86 (≈ 17.3 µM) |  |  | O=C(Nc1ccccc1)N1CCCc2cnc(N3CCOCC3)nc21
 | 130 | 5120 |  |  |  | O=C(C1CCCCC1)N1CCC[C@H]1Cn1nnc(-c2cccs2)n1
1.56 | 7.78 | 32.5 | 33.8 (≈ 82.1 µM) |  |  | COc1cccc(-n2nc(C(=O)O)cc2-c2ccc(C3CCCCC3)c(Cl)c2)c1
 |  |  | 0.15 (≈ 0.543 µM) |  |  | NC(=O)Cn1c2ccccc2c2nc3ccccc3nc21
0.867 | ≤ 4.74 | 35.3 | 43.6 (≈ 149 µM) |  |  | Cc1ccccc1CNC(=O)c1ccc(-n2ccnc2)nc1
0.58 | 21.4 | 774 | 39 (≈ 119 µM) |  |  | O=C(c1cnc(-c2ccccc2)s1)N1CCOC2(CCCC2)C1
1.03 | 165 | 1790 | 57.3 (≈ 159 µM) |  |  | CN(C)c1nc(CN2CCOCC2)nc2scc(-c3cccs3)c12
8.86 | 41.8 | 201 |  |  |  | CCCn1ncc(CN2CCC(c3cc4cccnc4[nH]3)CC2)c1C
60 | 345 | 2300 |  |  |  | Cc1cc(Nc2ccc(F)cn2)cc(C2CCN(C(=O)CCn3ncc4ccccc43)C2)n1 (stereo not drawn)
 | 88.1 | 604 |  |  |  | CCOc1ccc2c(c1)cc(CN1CCSCC1)c1nn(C)c(=O)n12
2.44 | 360 | 2530 |  |  |  | O=C(c1ccc(Cl)cc1)N1CCC[C@@H](C(=O)N2CCc3ccccc3C2)C1
0.577 | 40.5 | 484 |  |  |  | CCc1c(C(=O)NCCc2ccc(N3CCCCC3)cc2)[nH]c2ccc(Cl)cc12
0.648 | 131 | 1850 |  |  |  | CSc1cnc(N2CCCN(c3ncc(SC)cn3)CC2)nc1
 | ≤ 4.74 | 14.3 |  |  |  | CC(C)c1c(-c2ccccc2)[n+]([O-])c2c([n+]1[O-])CCC2

More lines, now with the values behind:

Compound | MDR1-MDCK efflux ratio | intrinsic clearance, human liver microsomes [mL/min/kg] | intrinsic clearance, rat liver microsomes [mL/min/kg] | aqueous solubility [µg/mL] | fraction unbound, human plasma | fraction unbound, rat plasma
COc1cc([C@@H]2c3cc4c(cc3[C@H](O)[C@H]3COC(=O)[C@@H]23)OCO4)cc(OC)c1OC | 0.444 | 44.5 | 5860 |  |  | 
COc1cc2cc3c(nc2cc1OC)OCCN(C1CCCCC1)C3 | 1.3 | 33.2 | 1680 |  |  | 
Cc1noc(COc2cccnc2C)n1 | 0.706 | ≤ 4.74 | 23.6 |  |  | 
CC(C)c1nnc(CNc2ncc(Br)cn2)n1C | 4.39 | ≤ 4.74 | ≤ 10.7 |  |  | 
CCSCCC(=O)NCCn1nc(C)c(CC)c1C | 2.49 | 146 | 1540 |  |  | 
Cc1ccc(C2=NC3(CCN(Cc4ccc(F)cc4)CC3)NC2=O)cc1 | 0.541 | 11.2 | 669 | 12.7 (≈ 36.2 µM) |  | 
Cc1ccc2[nH]c(C3CCN(C)CC3)nc2c1 | 2.88 | 88.3 | 685 | 57.3 (≈ 250 µM) |  | 
CCCC1(CNC(=O)Cn2ccc(=O)cc2)CCC1 | 14.3 | ≤ 4.74 | 14.6 |  |  | 
CCOc1ccc(CC(=O)NCCn2cccnc2=O)cc1 | 18 | ≤ 4.74 | 11.1 | 68.5 (≈ 227 µM) |  | 
CC(C)CC(=O)Nc1cccnc1N(C)C | 0.597 | ≤ 4.74 | 57.9 | 30.3 (≈ 137 µM) |  | 
Cc1nnc(N2CC[C@H](O)C2)c(C#N)c1C | 1.3 | ≤ 4.74 | ≤ 10.7 | 31.2 (≈ 143 µM) |  | 
CCN(c1ccc(C(C)C)cc1)S(=O)(=O)c1ccccc1 | 0.516 |  |  | 0.65 (≈ 2.14 µM) |  | 
CCc1noc(COc2c(C)ccnc2Cl)n1 |  |  |  | 23.3 (≈ 91.8 µM) |  | 
Cc1cc(NC(=O)c2cc(F)cc(F)c2)sn1 |  | 130 | 77.3 |  |  | 
Cc1ccc(-c2nc3ccccc3[nH]2)cc1NS(=O)(=O)c1ccc(Cl)cc1 | 4.88 |  |  | 0.28 (≈ 0.704 µM) |  | 
NC(=O)Cn1nnc(-c2ccccc2F)n1 |  |  |  | 11.6 (≈ 52.2 µM) |  | 
Cc1cc(C(=O)NC(C)(C)C#N)nn1-c1ccc(F)cc1 | 1.35 | ≤ 4.74 | 19.7 |  |  | 
Cc1cc(F)ccc1NC(=O)Cn1cncn1 |  | ≤ 4.74 | ≤ 10.7 | 35.1 (≈ 150 µM) |  | 
CON(C)C(=O)c1cc(C)ccc1NS(C)(=O)=O | 1.52 | ≤ 4.74 | ≤ 10.7 | 33.3 (≈ 122 µM) |  | 
CC(C)(C)C(=O)N1CCN(C(=O)CCN2CCOC2=O)CC1 | 64.9 | ≤ 4.74 | ≤ 10.7 | 62.7 (≈ 201 µM) |  | 
O=C(CSC1CCCC1)N1CCC(Cn2cccn2)CC1 | 1.6 | 74.6 | 747 | 63.3 (≈ 206 µM) |  | 
Clc1ccccc1C(c1ccccc1)(c1ccccc1)n1ccnc1 |  |  |  | 3.73 (≈ 10.8 µM) |  | 
COc1ccc(Nc2c(C#N)cnc3cc(OC)c(OC)cc23)cc1Cl | 3.24 | 53.1 | 574 |  | 0.00925 | 0.0131
CCC1(O)CN(c2ncccc2C#N)C1 | 0.523 | ≤ 4.74 | 25 | 22.7 (≈ 112 µM) |  | 
CCN1CCN(C(=O)CNc2ncnc3onc(C)c23)CC1 | 3.68 | ≤ 4.74 | ≤ 10.7 |  |  | 
CC(C)COc1ccc(C(C)(C)NCc2nnc(C3CCC3)o2)cc1 |  | 127 | 3070 |  |  | 
COc1cc2nc(N)sc2cc1OC | 0.668 | ≤ 4.74 | 12.6 | 32.6 (≈ 155 µM) |  | 
COc1ccc(F)c(CN2CCC(Cc3noc(C)n3)CC2)c1 | 0.656 | 20.2 | 263 | 69.4 (≈ 217 µM) |  | 
O=C(C1CC1)N1CCC(CNS(=O)(=O)N2CCCCCC2)CC1 | 15.2 | 40.4 | 1320 |  |  | 
Cc1cc(C)nc(-n2nc(C)c(CC(=O)NC3CCCCCC3)c2C)n1 | 33.3 | 43.9 | 832 | 54.6 (≈ 154 µM) |  | 
